# Measurements published in EP4768499A1, “MACROCYCLIC PEPTIDE COMPOUND HAVING CELL MEMBRANE PERMEABILITY AND METABOLIC STABILITY, AND LIBRARY CONTAINING SAME” (Chugai Seiyaku Kabushiki Kaisha, priority 2023, dated 2025).
# Where two headings read alike, the source gives them in different places. Starred links: 1 amine or outer side, 2 acyl side, 3 side chain; linkers in the order of their positions; H or OH if unused. Positions of bridges follow the written chain, without caps; N, C: chain ends. Non-standard residues stand in square brackets, D forms with d. Residues, ends and D or L forms follow the SMILES beside them. *: point of attachment. NMedβ3hAla = C[C@H](CC(=O)[*:2])N(C)[*:1]; NMeF = CN[C@@H](Cc1ccccc1)C(=O)O; NMeGABA = CN(CCCC(=O)[*:2])[*:1]; NMeI = CC[C@H](C)[C@H](NC)C(=O)O; NMeT = CN[C@H](C(=O)O)[C@@H](C)O; hPhe = N[C@@H](CCc1ccccc1)C(=O)O; NMeβAla = CN(CCC(=O)[*:2])[*:1]; NMeL = CN[C@@H](CC(C)C)C(=O)O; NMeV = CN[C@H](C(=O)O)C(C)C; d(β3hA) = C[C@@H](N)CC(=O)O; NMeAbu = CC[C@H](NC)C(=O)O; NMeA = CN[C@@H](C)C(=O)O; Piperidide = C1CCN(*)CC1; dNMeA = CN[C@H](C)C(=O)O; Abu = CC[C@H](N)C(=O)O; βAla = NCCC(=O)O; Sar = CNCC(=O)O; tBu = CC(C)(C)*
# Legend:
# [1] = Metabolic stability test: liver microsomal stability assay; assay type: in vitro ADME, mouse; conditions: for microsomal CLint at 1 µM: male, pH 7.4, presence of NADPH, read-out: Mouse Hepatic Microsome CLh,int NADPH(+)
# Caco-2 cells = test: Membrane permeability test using Caco-2 cells with preincubation; assay type: in vitro ADME
# [2] = as above; assay type: in vitro ADME; conditions: Caco-2
# [3] = mouse liver microsomes 0.5 mg protein/mL, compound 1 µM
# [4] = mouse liver microsomes 0.5 mg protein/mL, compound 1 µM, absence of NADPH
# [5] = Caco-2 cells, preincubation 20 to 24 hours, apical FaSSIF/HBSS 1% DMSO pH 6.0, basal HBSS 4% BSA pH 7.4, basal sample at 180 minutes
# [6] = preincubation 20 to 24 hours, Apical FaSSIF/HBSS pH 6.0, Basal HBSS 4% BSA pH 7.4, 180 minutes, read-out: Caco2 Papp
Compound,"microsomal CLint at 1 µM [1, 3] [µL/min/mg]","Mouse Hepatic Microsome CLh,int NADPH(-) [1, 4] [µL/min/mg Protein]",Caco2 Papp (10^-6 cm/sec) (Caco-2 cells; [5]),"Papp A→B [2, 6] [×10⁻⁶ cm/s]","Mouse Hepatic Microsome CLh,int NADPH(-) [1] [µL/min/mg Protein]",Caco2 Papp (10^-6 cm/sec) (Caco-2 cells; Caco-2),Papp A→B [2] [×10⁻⁶ cm/s]
CC[C@H](C)[C@H]1C(=O)N(C)[C@@H](CC(C)C)C(=O)N[C@H](C(=O)N2CCCCC2)CC(=O)N(C)CCCC(=O)N[C@@H](CC(C)C)C(=O)N(C)[C@@H](CC(C)C)C(=O)N(C)[C@@H](C)C(=O)N(C)[C@@H](Cc2ccccc2)C(=O)N[C@@H](C)C(=O)N(C)[C@@H](Cc2ccccc2)C(=O)N(C)[C@@H](CC)C(=O)N(C)[C@@H](CC(C)C)C(=O)N[C@@H]([C@@H](C)O)C(=O)N(C)[C@@H](C)C(=O)N1C [pd048] ([NMeGABA]L[NMeL][NMeA][NMeF]A[NMeF][NMeAbu][NMeL]T[NMeA][NMeI][NMeL]D-Piperidide; lactam N-14),30.2,20.7,0.28 10^-6 cm/sec,0.28,,,
CC[C@H]1C(=O)N(C)[C@@H](C)C(=O)N[C@@H](CC(C)C)C(=O)N(C)[C@@H](C(C)C)C(=O)N[C@H](C)CC(=O)N[C@H](C(C)C)C(=O)N(C)[C@@H](CC(C)C)C(=O)N[C@@H](CC(C)C)C(=O)N(C)[C@@H](C(C)C)C(=O)N(C)[C@@H](CC(C)C)C(=O)N(C)CC(=O)N[C@@H]([C@@H](C)O)C(=O)N(C)[C@@H](Cc2ccccc2)C(=O)N[C@@H](COC(C)(C)C)C(=O)N1C [pd049] (cyclo(L[NMeV][NMeL][Sar]T[NMeF]S(tBu)[NMeAbu][NMeA]L[NMeV][d(β3hA)][dV][NMeL])),30.6,29.1,0.32 10^-6 cm/sec,0.32,,,
CC[C@H](C)[C@H]1C(=O)N[C@@H]([C@@H](C)O)C(=O)N(C)CC(=O)N(C)[C@@H](CC(C)C)C(=O)N[C@@H](CC(C)C)C(=O)N[C@H](C)CC(=O)N(C)[C@@H](C)C(=O)N[C@@H](CC(C)C)C(=O)N(C)[C@@H](C)C(=O)N(C)[C@@H](CC(C)C)C(=O)N[C@@H](COC(C)(C)C)C(=O)N(C)[C@@H](Cc2ccccc2)C(=O)N[C@@H](C(C)C)C(=O)N(C)[C@@H](CC(C)C)C(=O)N1C [pd052] (cyclo(L[NMeA][NMeL]S(tBu)[NMeF]V[NMeL][NMeI]T[Sar][NMeL]L[d(β3hA)][NMeA])),28,32.0,1.01 10^-6 cm/sec,1.01,,,
CC[C@@H]1NC(=O)[C@H](CC(C)C)N(C)C(=O)[C@H]([C@@H](C)CC)NC(=O)[C@H](CC(C)C)N(C)C(=O)C[C@@H](C)NC(=O)[C@H](C(C)C)N(C)C(=O)[C@H](CC(C)C)NC(=O)[C@H](CC)N(C)C(=O)[C@H](Cc2ccccc2)N(C)C(=O)[C@@H]2CCCN2C(=O)[C@H](CC(C)C)NC(=O)[C@H]([C@@H](C)O)N(C)C(=O)[C@H](C)NC(=O)[C@H](CC(C)C)N(C)C1=O [pd053] (cyclo(A[NMeT]LP[NMeF][NMeAbu]L[NMeV][d(β3hA)][NMeL]I[NMeL][Abu][NMeL])),45.7,24.1,1.64 10^-6 cm/sec,1.64,,,
CC[C@H](C)[C@@H]1NC(=O)[C@@H]2CCCN2C(=O)[C@H](C(C)C)N(C)C(=O)[C@H](CC(C)C)NC(=O)[C@@H](C)N(C)C(=O)C[C@@H](C)NC(=O)[C@H](C(C)C)N(C)C(=O)[C@H](Cc2ccccc2)N(C)C(=O)[C@H](COC(C)(C)C)NC(=O)[C@H](CC(C)C)N(C)C(=O)[C@H](C)N(C)C(=O)[C@H](CC(C)C)N(C)C(=O)[C@H]([C@@H](C)O)NC(=O)[C@H](Cc2ccccc2)N(C)C1=O [pd054] (cyclo(I[NMeF]T[NMeL][NMeA][NMeL]S(tBu)[NMeF][NMeV][d(β3hA)][dNMeA]L[NMeV]P)),32.5,25.1,0.49 10^-6 cm/sec,0.49,,,
CC[C@H](C)[C@@H]1NC(=O)[C@H](CC(C)C)N(C)C(=O)[C@H](CC(C)C)NC(=O)[C@H](C)N(C)C(=O)[C@H](Cc2ccccc2)N(C)C(=O)[C@@H]2CCCN2C(=O)[C@H](CC(C)C)N(C)C(=O)[C@H](CCc2ccccc2)NC(=O)CCN(C)C(=O)C[C@@H](C)NC(=O)[C@H](CC(C)C)N(C)C(=O)[C@H]([C@@H](C)O)NC(=O)[C@H](C)N(C)C(=O)[C@H](C(C)C)N(C)C1=O [pd056] (cyclo(I[NMeV][NMeA]T[NMeL][d(β3hA)][NMeβAla][hPhe][NMeL]P[NMeF][NMeA]L[NMeL])),55.9,30.2,0.27 10^-6 cm/sec,0.27,,,
CC[C@H](C)[C@@H]1NC(=O)[C@H](CC(C)C)N(C)C(=O)C[C@@H](C)NC(=O)[C@H](C(C)C)N(C)C(=O)[C@H](COC(C)(C)C)NC(=O)[C@H](CC)N(C)C(=O)[C@H](Cc2ccccc2)N(C)C(=O)[C@H](CC(C)C)NC(=O)[C@@H]2CCCN2C(=O)[C@H]([C@@H](C)O)N(C)C(=O)[C@H](CC(C)C)N(C)C(=O)[C@H](CC)N(C)C(=O)[C@H](C(C)C)N(C)C(=O)[C@H](CC(C)C)N(C)C1=O [pd061] (cyclo(I[NMeL][NMeV][NMeAbu][NMeL][NMeT]PL[NMeF][NMeAbu]S(tBu)[NMeV][d(β3hA)][NMeL])),39,39.7,0.51 10^-6 cm/sec,0.51,,,
CC[C@@H]1NC(=O)[C@H](CC(C)C)N(C)C(=O)CCNC(=O)[C@H](Cc2ccccc2)N(C)C(=O)[C@H](Cc2ccccc2)N(C)C(=O)CNC(=O)[C@H]([C@@H](C)CC)NC(=O)[C@H](CC(C)C)N(C)C(=O)CCCN(C)C(=O)C[C@@H](C)N(C)C(=O)[C@H](CC(C)C)NC(=O)[C@H]([C@@H](C)CC)NC(=O)[C@H](C)N(C)C(=O)[C@H](C(C)C)NC1=O [pd062] (cyclo([Abu]V[NMeA]IL[NMedβ3hAla][NMeGABA][NMeL]IG[NMeF][NMeF][βAla][NMeL])),,,,,24.1,<0.11 10^-6 cm/sec,< 0.11

# Next, values leading:
"microsomal CLint at 1 µM [1, 3] [µL/min/mg]","Mouse Hepatic Microsome CLh,int NADPH(-) [1, 4] [µL/min/mg Protein]",Caco2 Papp (10^-6 cm/sec) (Caco-2 cells; [5]),"Papp A→B [2, 6] [×10⁻⁶ cm/s]","Mouse Hepatic Microsome CLh,int NADPH(-) [1] [µL/min/mg Protein]",Caco2 Papp (10^-6 cm/sec) (Caco-2 cells; Caco-2),Papp A→B [2] [×10⁻⁶ cm/s],Compound
13.2,15.9,0.54 10^-6 cm/sec,0.54,,,,CC[C@H](C)[C@@H]1NC(=O)[C@H](C)N(C)C(=O)[C@H]([C@@H](C)O)N(C)C(=O)[C@H](CC(C)C)N(C)C(=O)[C@H]([C@@H](C)CC)NC(=O)[C@H](Cc2ccccc2)N(C)C(=O)[C@H](Cc2ccccc2)N(C)C(=O)[C@H](C)NC(=O)[C@H](COC(C)(C)C)NC(=O)[C@H](CC)N(C)C(=O)[C@H](C(C)C)NC(=O)CCCN(C)C(=O)C[C@@H](C)NC(=O)[C@H](C(C)C)N(C)C1=O [pd050] (cyclo(A[NMeF][NMeF]I[NMeL][NMeT][NMeA]I[NMeV][d(β3hA)][NMeGABA]V[NMeAbu]S(tBu)))
27.1,15.0,0.12 10^-6 cm/sec,0.12,,,,CC[C@@H]1NC(=O)[C@H](C)N(C)C(=O)[C@H](C(C)C)N(C)C(=O)[C@H]([C@@H](C)CC)NC(=O)[C@H](C)N(C)C(=O)CCCN(C)C(=O)C[C@@H](C)NC(=O)[C@H](C(C)C)N(C)C(=O)[C@H](CCc2ccccc2)NC(=O)CCN(C)C(=O)[C@H]([C@@H](C)O)N(C)C(=O)[C@H](CC(C)C)N(C)C(=O)[C@H]([C@@H](C)CC)NC(=O)[C@H](Cc2ccccc2)N(C)C1=O [pd055] (cyclo([Abu][NMeF]I[NMeL][NMeT][NMeβAla][hPhe][NMeV][d(β3hA)][NMeGABA][NMeA]I[NMeV][NMeA]))
16.3,14.8,0.72 10^-6 cm/sec,0.72,,,,CC[C@H]1C(=O)N[C@@H](COC(C)(C)C)C(=O)N(C)[C@@H](Cc2ccccc2)C(=O)N(C)[C@@H](C(C)C)C(=O)N[C@H](C)CC(=O)N(C)[C@H](C)C(=O)N(C)[C@@H](CC(C)C)C(=O)N(C)[C@@H](C(C)C)C(=O)N2CCC[C@H]2C(=O)N[C@@H](C(C)C)C(=O)N(C)[C@@H](Cc2ccccc2)C(=O)N[C@@H]([C@@H](C)O)C(=O)N(C)[C@@H](CC(C)C)C(=O)N(C)[C@@H](C)C(=O)N1C [pd058] (cyclo([NMeA][NMeAbu]S(tBu)[NMeF][NMeV][d(β3hA)][dNMeA][NMeL][NMeV]PV[NMeF]T[NMeL]))
12.7,18.6,0.52 10^-6 cm/sec,0.52,,,,CC[C@H](C)[C@@H]1NC(=O)[C@H](C)N(C)C(=O)CCCN(C)C(=O)C[C@@H](C)NC(=O)[C@H](C(C)C)N(C)C(=O)[C@H](CC(C)C)N(C)C(=O)[C@H](C)N(C)C(=O)[C@H]([C@@H](C)O)N(C)C(=O)[C@H](CCc2ccccc2)NC(=O)[C@H](C(C)C)NC(=O)[C@H](Cc2ccccc2)N(C)C(=O)[C@H](CC)N(C)C(=O)[C@H](C)N(C)C(=O)[C@H](C(C)C)N(C)C1=O [pd059] (cyclo(I[NMeV][NMeA][NMeAbu][NMeF]V[hPhe][NMeT][NMeA][NMeL][NMeV][d(β3hA)][NMeGABA][NMeA]))
